Measured values from patent US10131702B2, “Glucagon-GLP-1-GIP triple agonist compounds” (priority 2013, dated 2018).
pEC50: −log10 of the molar value. Like-named read-outs stand apart in the source and are kept apart here. Numbered stars: 1 amine (or outer) side, 2 acyl side, 3 side chain; on linkers, the order of the positions; unused ones are H or OH. Square brackets hold non-standard residues; d marks the D form. Side chains are listed from the residue outwards. Peptide text beside a SMILES is read from it. * marks the point of attachment. C18 diacid = O=C(O)CCCCCCCCCCCCCCCCC(=O)*; γGlu = O=C(O)[C@H](CCC(=O)[*:2])N[*:1]; Stearoyl = CCCCCCCCCCCCCCCCCC(=O)*; AEEA = NCCOCCOCC(=O)O; Aib = CC(C)(N)C(=O)O

Assays:
Type in all cases: cell-based
human GLP-1 R = target: T1, human GLP-1 R (Homo sapiens, UniProt P43220); assay: cAMP induction in HEK293 cells expressing human GLP-1 R (AlphaScreen cAMP kit); details: average EC50, cAMP, HEK293 cells expressing human GLP-1 R, read-out: GLP1 R (EC50 in nM)
T1 construct: expressed in transfected cells
T1 sequence (P43220 24-463): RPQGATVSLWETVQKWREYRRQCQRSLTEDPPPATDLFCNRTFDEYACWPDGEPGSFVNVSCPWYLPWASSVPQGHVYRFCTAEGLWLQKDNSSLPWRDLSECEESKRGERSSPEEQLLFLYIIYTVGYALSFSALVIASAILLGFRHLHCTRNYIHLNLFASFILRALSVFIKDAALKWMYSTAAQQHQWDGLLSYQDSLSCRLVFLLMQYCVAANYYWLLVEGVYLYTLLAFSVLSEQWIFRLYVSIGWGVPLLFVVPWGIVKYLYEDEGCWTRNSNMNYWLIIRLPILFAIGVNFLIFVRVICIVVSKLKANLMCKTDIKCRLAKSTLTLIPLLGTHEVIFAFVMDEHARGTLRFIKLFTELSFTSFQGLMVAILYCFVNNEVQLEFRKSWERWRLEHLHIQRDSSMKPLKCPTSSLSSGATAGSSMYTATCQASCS

human GCG R = target: T2, human GCG R (Homo sapiens, UniProt P47871); assay: cAMP induction in HEK293 cells expressing human GCG R (AlphaScreen cAMP kit); details: for EC50: average EC50, cAMP, HEK293 cells expressing human GCG R, read-out: GCG R (EC50 in nM)
T2 construct: expressed in transfected cells
T2 sequence (P47871 26-477): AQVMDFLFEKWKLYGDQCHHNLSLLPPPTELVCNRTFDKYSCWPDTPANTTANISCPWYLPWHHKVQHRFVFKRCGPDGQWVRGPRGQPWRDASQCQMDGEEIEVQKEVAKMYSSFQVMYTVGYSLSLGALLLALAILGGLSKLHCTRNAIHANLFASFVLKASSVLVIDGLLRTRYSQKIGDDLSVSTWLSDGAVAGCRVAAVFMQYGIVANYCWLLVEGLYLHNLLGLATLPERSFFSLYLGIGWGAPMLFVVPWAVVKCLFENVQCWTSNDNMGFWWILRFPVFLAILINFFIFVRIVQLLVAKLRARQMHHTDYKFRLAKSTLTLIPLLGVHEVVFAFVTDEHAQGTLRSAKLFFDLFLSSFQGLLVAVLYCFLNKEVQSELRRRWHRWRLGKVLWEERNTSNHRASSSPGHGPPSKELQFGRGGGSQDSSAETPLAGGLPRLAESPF

human GIP R = target: T3, human GIP R (Homo sapiens, UniProt P48546); assay: cAMP induction in HEK293 cells expressing human GIP R (AlphaScreen cAMP kit)
T3 construct: expressed in transfected cells
T3 sequence (P48546 22-466): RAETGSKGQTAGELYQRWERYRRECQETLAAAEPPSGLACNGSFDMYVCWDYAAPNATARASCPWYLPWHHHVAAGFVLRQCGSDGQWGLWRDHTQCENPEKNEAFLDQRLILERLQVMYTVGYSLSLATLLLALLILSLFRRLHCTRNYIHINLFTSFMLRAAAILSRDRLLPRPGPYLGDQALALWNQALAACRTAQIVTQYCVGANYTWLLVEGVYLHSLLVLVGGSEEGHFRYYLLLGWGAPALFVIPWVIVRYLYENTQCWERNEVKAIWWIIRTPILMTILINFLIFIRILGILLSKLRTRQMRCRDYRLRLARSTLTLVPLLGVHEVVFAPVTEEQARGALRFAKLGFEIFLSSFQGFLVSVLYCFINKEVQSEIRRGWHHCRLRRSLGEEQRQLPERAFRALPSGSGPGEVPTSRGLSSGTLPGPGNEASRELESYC

[1] = Table 2b (most comprehensive data)
[2] = Table 2b (most comprehensive data), average EC50, cAMP, read-out: GIP R (EC50 in nM)
[3] = GIP R (EC50 in nM), Table 2, average EC50, cAMP
[4] = GIP R (EC50 in nM), Table 2b (most comprehensive data), average EC50, cAMP

SMILES	EC50 (human GLP-1 R; [1])	EC50 (human GCG R; [1])	EC50 (human GIP R; [2])	EC50 (human GLP-1 R; Table 2)	pEC50 (human GCG R)	EC50 (human GIP R; [3])	EC50 (human GIP R; [4])	EC50 (human GCG R; Table 2)	EC50 (human GIP R; Table 2, average EC50, cAMP, read-out: GIP R (EC50 in nM))
CC[C@H](C)[C@H](NC(=O)[C@H](CO)NC(=O)[C@H](Cc1ccc(O)cc1)NC(=O)[C@H](CC(=O)O)NC(=O)[C@H](CO)NC(=O)[C@@H](NC(=O)[C@H](Cc1ccccc1)NC(=O)[C@@H](NC(=O)CNC(=O)[C@H](CCC(N)=O)NC(=O)C(C)(C)NC(=O)[C@@H](N)Cc1ccc(O)cc1)[C@@H](C)O)[C@@H](C)O)C(=O)N[C@@H](Cc1ccc(O)cc1)C(=O)N[C@@H](CC(C)C)C(=O)N[C@@H](CCC(=O)O)C(=O)N[C@@H](CCCCN)C(=O)N[C@@H](CCCCNC(=O)COCCOCCNC(=O)COCCOCCNC(=O)CC[C@H](NC(=O)CCCCCCCCCCCCCCCCC(=O)O)C(=O)O)C(=O)N[C@@H](C)C(=O)N[C@@H](C)C(=O)N[C@@H](CCCCN)C(=O)N[C@@H](CCC(=O)O)C(=O)N[C@@H](Cc1ccccc1)C(=O)N[C@H](C(=O)N[C@@H](CCC(=O)O)C(=O)N[C@@H](Cc1c[nH]c2ccccc12)C(=O)N[C@@H](CC(C)C)C(=O)N[C@@H](CC(C)C)C(=O)N[C@@H](CO)C(=O)N[C@@H](C)C(=O)NCC(=O)N1CCC[C@H]1C(=O)N[C@@H](CO)C(=O)N[C@@H](CO)C(=O)NCC(=O)N[C@@H](C)C(=O)N1CCC[C@H]1C(=O)N1CCC[C@H]1C(=O)N1CCC[C@H]1C(=O)N[C@@H](CO)C(N)=O)C(C)C [Compound 38] (H-Y[Aib]QGTFTSDYSIYLEKK([AEEA-AEEA-γGlu-C18 diacid])AAKEFVEWLLSAGPSSGAPPPS-NH2)	0.015 nM	0.27 nM	0.064 nM						
CC[C@H](C)[C@H](NC(=O)[C@H](CO)NC(=O)[C@H](Cc1ccc(O)cc1)NC(=O)[C@H](CC(=O)O)NC(=O)[C@H](CO)NC(=O)[C@@H](NC(=O)[C@H](Cc1ccccc1)NC(=O)[C@@H](NC(=O)CNC(=O)[C@H](CCC(N)=O)NC(=O)C(C)(C)NC(=O)[C@@H](N)Cc1ccc(O)cc1)[C@@H](C)O)[C@@H](C)O)C(=O)N[C@@H](Cc1ccc(O)cc1)C(=O)N[C@@H](CC(C)C)C(=O)N[C@@H](CC(=O)O)C(=O)N[C@@H](CO)C(=O)N[C@@H](CCCCN)C(=O)N[C@@H](C)C(=O)N[C@@H](C)C(=O)N[C@@H](Cc1c[nH]cn1)C(=O)N[C@@H](CC(=O)O)C(=O)N[C@@H](Cc1ccccc1)C(=O)N[C@H](C(=O)N[C@@H](CCC(=O)O)C(=O)N[C@@H](Cc1c[nH]c2ccccc12)C(=O)N[C@@H](CC(C)C)C(=O)N[C@@H](CC(C)C)C(=O)N[C@@H](CCCNC(=N)N)C(=O)N[C@@H](C)C(N)=O)C(C)C [Compound 12] (HELM PEPTIDE1{Y.[Aib].Q.G.T.F.T.S.D.Y.S.I.Y.L.D.S.K.A.A.H.D.F.V.E.W.L.L.R.A.[am]}$$$$V2.0)				0.012 nM	10.12	0.084 nM	0.012 nM		
CCCCCCCCCCCCCCCC(=O)N[C@@H](CCC(=O)NCCCC[C@H](NC(=O)[C@H](CO)NC(=O)[C@H](Cc1ccc(O)cc1)NC(=O)[C@H](CC(=O)O)NC(=O)[C@H](CO)NC(=O)[C@@H](NC(=O)[C@H](Cc1ccccc1)NC(=O)[C@@H](NC(=O)CNC(=O)[C@H](CCC(N)=O)NC(=O)C(C)(C)NC(=O)[C@@H](N)Cc1ccc(O)cc1)[C@@H](C)O)[C@@H](C)O)C(=O)N[C@@H](Cc1ccc(O)cc1)C(=O)N[C@@H](CC(C)C)C(=O)N[C@@H](CCC(=O)O)C(=O)N[C@@H](CCCCN)C(=O)N[C@@H](CCCCN)C(=O)N[C@@H](C)C(=O)N[C@@H](C)C(=O)N[C@@H](CCCCN)C(=O)N[C@@H](CCC(=O)O)C(=O)N[C@@H](Cc1ccccc1)C(=O)N[C@H](C(=O)N[C@@H](CCC(=O)O)C(=O)N[C@@H](Cc1c[nH]c2ccccc12)C(=O)N[C@@H](CC(C)C)C(=O)N[C@@H](CC(C)C)C(=O)N[C@@H](CO)C(=O)N[C@@H](C)C(N)=O)C(C)C)C(=O)O [Compound 25] (HELM PEPTIDE1{Y.[Aib].Q.G.T.F.T.S.D.Y.S.K.Y.L.E.K.K.A.A.K.E.F.V.E.W.L.L.S.A.[am]}|PEPTIDE2{[CCCCCCCCCCCCCCCC(=O)[*:2]].[gGlu]}$PEPTIDE1,PEPTIDE2,12:R3-2:R2$$$V2.0)	0.28 nM		0.25 nM	0.28 nM				0.3 nM	0.25 nM
CC[C@H](C)[C@H](NC(=O)[C@H](CO)NC(=O)[C@H](Cc1ccc(O)cc1)NC(=O)[C@H](CC(=O)O)NC(=O)[C@H](CO)NC(=O)[C@@H](NC(=O)[C@H](Cc1ccccc1)NC(=O)[C@@H](NC(=O)CNC(=O)[C@H](CCC(N)=O)NC(=O)C(C)(C)NC(=O)[C@@H](N)Cc1ccc(O)cc1)[C@@H](C)O)[C@@H](C)O)C(=O)N[C@@H](Cc1ccc(O)cc1)C(=O)N[C@@H](CC(C)C)C(=O)N[C@@H](CC(=O)O)C(=O)N[C@@H](CO)C(=O)N[C@@H](CCCCN)C(=O)N[C@@H](C)C(=O)N[C@@H](C)C(=O)N[C@@H](CCCCN)C(=O)N[C@@H](CC(=O)O)C(=O)N[C@@H](Cc1ccccc1)C(=O)N[C@H](C(=O)N[C@@H](CCC(=O)O)C(=O)N[C@@H](Cc1c[nH]c2ccccc12)C(=O)N[C@@H](CC(C)C)C(=O)N[C@@H](CC(C)C)C(=O)N[C@@H](CO)C(=O)N[C@@H](C)C(N)=O)C(C)C [Compound 10] (HELM PEPTIDE1{Y.[Aib].Q.G.T.F.T.S.D.Y.S.I.Y.L.D.S.K.A.A.K.D.F.V.E.W.L.L.S.A.[am]}$$$$V2.0)	0.1 nM			0.012 nM	10.00	0.24 nM	0.012 nM		
CC[C@H](C)[C@H](NC(=O)[C@H](CO)NC(=O)[C@H](Cc1ccc(O)cc1)NC(=O)[C@H](CC(=O)O)NC(=O)[C@H](CO)NC(=O)[C@@H](NC(=O)[C@H](Cc1ccccc1)NC(=O)[C@@H](NC(=O)CNC(=O)[C@H](CCC(N)=O)NC(=O)C(C)(C)NC(=O)[C@@H](N)Cc1ccc(O)cc1)[C@@H](C)O)[C@@H](C)O)C(=O)N[C@@H](Cc1ccc(O)cc1)C(=O)N[C@@H](CC(C)C)C(=O)N[C@@H](CC(=O)O)C(=O)N[C@@H](CCC(=O)O)C(=O)N[C@@H](CCCCN)C(=O)N[C@@H](C)C(=O)N[C@@H](C)C(=O)N[C@@H](CCCCN)C(=O)N[C@@H](CC(=O)O)C(=O)N[C@@H](Cc1ccccc1)C(=O)N[C@H](C(=O)N[C@@H](CCC(=O)O)C(=O)N[C@@H](Cc1c[nH]c2ccccc12)C(=O)N[C@@H](CC(C)C)C(=O)N[C@@H](CC(C)C)C(=O)N[C@@H](CO)C(=O)N[C@@H](C)C(N)=O)C(C)C [Compound 17] (HELM PEPTIDE1{Y.[Aib].Q.G.T.F.T.S.D.Y.S.I.Y.L.D.E.K.A.A.K.D.F.V.E.W.L.L.S.A.[am]}$$$$V2.0)	0.16 nM			0.011 nM	9.80	0.091 nM	0.013 nM		
CC(C)C[C@H](NC(=O)[C@H](C)NC(=O)[C@H](CCCCN)NC(=O)[C@H](CO)NC(=O)[C@H](Cc1ccc(O)cc1)NC(=O)[C@H](CC(=O)O)NC(=O)[C@H](CO)NC(=O)[C@@H](NC(=O)[C@H](Cc1ccccc1)NC(=O)[C@@H](NC(=O)CNC(=O)[C@H](CCC(N)=O)NC(=O)C(C)(C)NC(=O)[C@@H](N)Cc1ccc(O)cc1)[C@@H](C)O)[C@@H](C)O)C(=O)N[C@@H](CC(=O)O)C(=O)N[C@@H](CCC(=O)O)C(=O)N[C@@H](CCCCN)C(=O)N[C@@H](C)C(=O)N[C@@H](C)C(=O)N[C@@H](CCCCN)C(=O)N[C@@H](CCC(=O)O)C(=O)N[C@@H](Cc1ccccc1)C(=O)N[C@H](C(=O)N[C@@H](CCC(=O)O)C(=O)N[C@@H](Cc1c[nH]c2ccccc12)C(=O)N[C@@H](CC(C)C)C(=O)N[C@@H](CC(C)C)C(=O)N[C@@H](CO)C(=O)N[C@@H](C)C(N)=O)C(C)C [Compound 21] (HELM PEPTIDE1{Y.[Aib].Q.G.T.F.T.S.D.Y.S.K.A.L.D.E.K.A.A.K.E.F.V.E.W.L.L.S.A.[am]}$$$$V2.0)	0.1 nM			0.014 nM	10.00	0.18 nM	0.015 nM		
CCCCCCCCCCCCCCCCCC(=O)N[C@@H](CCC(=O)NCCOCCOCC(=O)NCCOCCOCC(=O)NCCCC[C@H](NC(=O)[C@H](CCCCN)NC(=O)[C@H](CCC(=O)O)NC(=O)[C@H](CC(C)C)NC(=O)[C@H](Cc1ccc(O)cc1)NC(=O)[C@@H](NC(=O)[C@H](CO)NC(=O)[C@H](Cc1ccc(O)cc1)NC(=O)[C@H](CC(=O)O)NC(=O)[C@H](CO)NC(=O)[C@@H](NC(=O)[C@H](Cc1ccccc1)NC(=O)[C@@H](NC(=O)CNC(=O)[C@H](CCC(N)=O)NC(=O)C(C)(C)NC(=O)[C@@H](N)Cc1ccc(O)cc1)[C@@H](C)O)[C@@H](C)O)[C@@H](C)CC)C(=O)N[C@@H](C)C(=O)N[C@@H](C)C(=O)N[C@@H](CCCCN)C(=O)N[C@@H](CCC(=O)O)C(=O)N[C@@H](Cc1ccccc1)C(=O)N[C@H](C(=O)N[C@@H](CCC(=O)O)C(=O)N[C@@H](Cc1c[nH]c2ccccc12)C(=O)N[C@@H](CC(C)C)C(=O)N[C@@H](CC(C)C)C(=O)N[C@@H](CO)C(=O)N[C@@H](C)C(=O)NCC(=O)N1CCC[C@H]1C(=O)N[C@@H](CO)C(=O)N[C@@H](CO)C(=O)NCC(=O)N[C@@H](C)C(=O)N1CCC[C@H]1C(=O)N1CCC[C@H]1C(=O)N1CCC[C@H]1C(=O)N[C@@H](CO)C(N)=O)C(C)C)C(=O)O [Compound 37] (H-Y[Aib]QGTFTSDYSIYLEKK([AEEA-AEEA-γGlu-Stearoyl])AAKEFVEWLLSAGPSSGAPPPS-NH2)		0.014 nM	0.018 nM						
